From US20010033847A1, “DERMATOLOGIC PREPARATION” (priority 1996, published 2001)

Tested on: affected regions of atopic patients
Experiment: itch and area of inflammation after 1 week of application in atopic patients
Assay type: in vivo, human
Conditions: number of 3 atopic patients; daily application for 1 week
Description: The dermatologic preparations of Examples 1 to 3 and the dermatologic preparations for comparison of Reference Examples 1 to 3 were evaluated for itch and the area of inflammation 1 week after application.
To the affected regions of 3 atopic patients (1 adult, 1 adult, and 1 child), was applied an adequate amount of each oil produced in Examples 1 to 3 and Reference Examples 1 to 3 after bathing every day. After application for 1 week, itch and the inflammatory area were evaluated. During the treatment period, the drugs used previously were continued. In the child who could not describe itch, itch was evaluated based on the behavior of scratching at the affected region.

1,3-dioctanoyl-2-eicosapentaenoyl glycerol [Example 2]
inflammatory area: no change: 0 patients
inflammatory area: reduced: 3 patients
inflammatory area: widened: 0 patients
itch: improved: 3 patients
itch: no change: 0 patients
itch: worsened: 0 patients
